Values after ≈ are worked out from the molar mass of the structure shown. Read-outs that look alike come from different tables or passages of the source. Positions of bridges follow the written chain, without caps; N, C: chain ends. Non-standard residues stand in square brackets, D forms with d. Residues, ends and D or L forms follow the SMILES beside them. ξ: configuration not given here. *: point of attachment. Ala(benzothiazol-2-yl) = N[C@@H](Cc1nc2ccccc2s1)C(=O)O; Benzoyl(4-Ph) = O=C(c1ccc(-c2ccccc2)cc1)*; Decanoyl(3R-OH) = CCCCCCC[C@@H](O)CC(=O)*; 2Nal = N[C@@H](Cc1ccc2ccccc2c1)C(=O)O; Decanoyl(3ξ-OH) = CCCCCCCC(O)CC(=O)*; dIgl = N[C@@H](C(=O)O)C1Cc2ccccc2C1; X4 = CCCCCOc1ccc(C(=O)*)cc1; dDab = NCC[C@@H](N)C(=O)O; dDap = NC[C@@H](N)C(=O)O; Dab = NCC[C@H](N)C(=O)O
Legend:
in vitro = settings: human
Description: Cytotoxicity of the synthesised peptides was evaluated by comparison with commercially available colistin (polymyxin E), polymyxin B (Sigma chemical Co., St. Louis, Mo., U.S.A.) and synthetic octapeptin C4 by conducting lactate dehydrogenase (LDH) assay. CC50 values calculated based on curve fitting of dose dependent inhibition of cell growth represented the cytotoxicity of the peptide. Human kidney 2 (HK2) cells were seeded as 2000 cells per well in a 384 well cell culture plate in a final volume of 20 μL in DMEM/F12 medium (Invitrogen #11330057), in which 10% of FBS was added. Cells were incubated for 24 hours at 37° C., 5% CO2 to allow cells to attach to the plates. Similar conditions were employed for HEK293 and HepG2 cytotoxicity assays.
Cytotoxicity to HEK293 and HepG2 cells was determined using the resazurin assay (McMillian, M. K.; Li, L.; Parker, J. B.; Patel, L.; Zhong, Z.; Gunnett, J. W.; Powers, W. J.; Johnson, M. D. An improved resazurin-based cytotoxicity assay for hepatic cells; Cell Biol. Toxicol. 2002, 18, 157-173; O'Brien, J.; Wilson, I.; Orton, T.; Pognan, F. Investigation of the Alamar Blue (resazurin) fluorescent dye for the assessment of mammalian cell cytotoxicity. Eur. J. Biochem. 2000, 267, 5421-5426). In brief, HEK293 and HepG2 cells were seeded at 4000 cells/well in black-wall, clear-bottom 384-well plates (Corning, Australia) and incubated for 24 h at 37° C., 5% CO2. Compounds were then added into each well. After 24 h incubation, 5 μM resazurin was added per well and incubated at 37° C. for 2 h. Fluorescence intensity was then read using a Polarstar Omega with excitation/emission 560/590. The data was then analyzed using GraphPad Prism 6 software. CC50 values were determined using GraphPad Prism 6 software (Inc. La Jolla, Calif.).

P. aeruginosa ATCC 27853 = settings: ATCC 27853
Method in brief: (§1)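 Mid-log cultures grown in Mueller Hinton broth at 37° C were tested by 2-fold broth microdilution at 5×10^5 CFU/mL final. Compounds were dissolved in water and tested over a final range of 32 to 0.015 μg/mL.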

[1] = system: K. pneumoniae GN_106, PmxR; settings: GN 106, PmxR
Method in brief: as §1

A. baumannii ATCC 19606 = settings: ATCC 19606
Method in brief: as §1

[2] = system: K. pneumoniae ATCC BAA-2146, NDM-1 pos; settings: ATCC BAA-2146
Method in brief: as §1

[3] = system: K. pneumoniae GN_102 PmxR; settings: GN 102 PmxR
Method in brief: as §1

[4] = system: P. aeruginosa GN_105, PmxR; settings: GN 105, PmxR
Method in brief: as §1

A. baumannii GN_093 PmxR = settings: GN 093 PmxR
Method in brief: as §1

[5] = system: K. pneumoniae ATCC 700603, MDR; settings: ATCC 700603
Method in brief: as §1

[6] = system: S. aureus ATCC 25923, MSSA; settings: ATCC 25923
Method in brief: as §1

K. pneumoniae ATCC 13883 = settings: ATCC 13883
Method in brief: as §1

E. coli ATCC 25922 = settings: ATCC 25922
Method in brief: as §1

[7] = system: P. aeruginosa GN_043, PmxR
Method in brief: as §1

Compound | CC50 at 24 h (in vitro) [µM] | MIC P. aeruginosa ATCC 27853 (P. aeruginosa ATCC 27853) [µg/mL] | MIC K. pneumoniae GN_106, PmxR [1] [µg/mL] | MIC A. baumannii ATCC 19606 (A. baumannii ATCC 19606) [µg/mL] | MIC K. pneumoniae ATCC BAA-2146, NDM-1 pos [2] [µg/mL] | MIC K. pneumoniae GN_102 PmxR [3] [µg/mL] | MIC P. aeruginosa GN_105, PmxR [4] [µg/mL] | MIC A. baumannii GN_093 PmxR (A. baumannii GN_093 PmxR) [µg/mL] | MIC K. pneumoniae ATCC 700603, MDR [5] [µg/mL] | MIC S. aureus ATCC 25923, MSSA [6] [µg/mL] | MIC K. pneumoniae ATCC 13883 (K. pneumoniae ATCC 13883) [µg/mL] | MIC E. coli ATCC 25922 (E. coli ATCC 25922) [µg/mL] | MIC P. aeruginosa GN_043, PmxR ([7]; polymyxin-resistant) [µg/mL] | also measured
CCCCCOc1ccc(C(=O)N[C@H](CCN)C(=O)N[C@H]2CCNC(=O)[C@H](CC(C)C)NC(=O)[C@H](CCN)NC(=O)[C@H](CCN)NC(=O)[C@H](Cc3ccccc3)NC(=O)[C@@H](CC(C)C)NC(=O)[C@H](CCN)NC2=O)cc1 [compound 6520, 4-(pentyloxy)benzoic acid-D-Dab-cyc[L-Dab-L-Dab-D-Leu-L-Phe-L-Dab-L-Dab-L-Leu]] (X4-[dDab][Dab][Dab][dL]F[Dab][Dab]L; lactam 2-C) | > 300 | 4 (≈ 3.76 µM) | >32 | >32 | 8 (≈ 7.52 µM) | 32 (≈ 30.1 µM) | 4 (≈ 3.76 µM) | 32 (≈ 30.1 µM) | 8 (≈ 7.52 µM) | 32 (≈ 30.1 µM) | 32 (≈ 30.1 µM) | 2 (≈ 1.88 µM) | – | MIC P. aeruginosa GN_043, PmxR ([7]; P. aeruginosa GN_043, PmxR): 4 µg/mL (≈ 3.76 µM)
CC(C)C[C@@H]1NC(=O)[C@H](CCN)NC(=O)[C@H](CCN)NC(=O)[C@H](CC(C)C)NC(=O)[C@@H](Cc2ccccc2)NC(=O)[C@H](CCN)NC(=O)[C@@H](NC(=O)[C@@H](CCN)NC(=O)c2ccc(-c3ccccc3)cc2)CCNC1=O [compound 6526, Ph-4-PhCO-D-Dab-cyc[L-Dab-L-Dab-D-Phe-L-Leu-L-Dab-L-Dab-L-Leu]] ({Benzoyl(4-Ph)}-[dDab][Dab][Dab][dF]L[Dab][Dab]L; lactam 2-C) | > 300 | 2 (≈ 1.9 µM) | >32 | >32 | 8 (≈ 7.59 µM) | 32 (≈ 30.4 µM) | 4 (≈ 3.79 µM) | >32 | 8 (≈ 7.59 µM) | >32 | 8 (≈ 7.59 µM) | 8 (≈ 7.59 µM) | – | MIC P. aeruginosa GN_043, PmxR [7]: 1 µg/mL (≈ 0.948 µM)
CCCCCCC[C@@H](O)CC(=O)N[C@H](CCN)C(=O)N[C@H]1CCNC(=O)[C@H](Cc2nc3ccccc3s2)NC(=O)[C@H](CCN)NC(=O)[C@H](CCN)NC(=O)[C@H](CC(C)C)NC(=O)[C@@H](Cc2ccccc2)NC(=O)[C@H](CCN)NC1=O [compound 8910, 3(R)OH-nC9CO-D-Dab-cyc[L-Dab-L-Dab-D-Phe-L-Leu-L-Dab-L-Dab-L-Ala(Bth)]] ({Decanoyl(3R-OH)}-[dDab][Dab][Dab][dF]L[Dab][Dab][Ala(benzothiazol-2-yl)]; lactam 2-C) | 47 | 2 (≈ 1.76 µM) | 4 (≈ 3.52 µM) | 8 (≈ 7.05 µM) | 4 (≈ 3.52 µM) | 8 (≈ 7.05 µM) | 2 (≈ 1.76 µM) | 4 (≈ 3.52 µM) | 4 (≈ 3.52 µM) | 4 (≈ 3.52 µM) | 4 (≈ 3.52 µM) | 2 (≈ 1.76 µM) | 4 (≈ 3.52 µM) | –
CCCCCCC[C@@H](O)CC(=O)N[C@H](CN)C(=O)N[C@H]1CCNC(=O)[C@H](Cc2c[nH]c3ccccc23)NC(=O)[C@H](CCCNC(=N)N)NC(=O)[C@H](CCCCN)NC(=O)[C@H](CC(C)C)NC(=O)[C@@H](C2Cc3ccccc3C2)NC(=O)[C@H](CCN)NC1=O [compound 8896, 3(R)OH-nC9CO-D-Dap-cyc[L-Dab-L-Dab-D-indanylgly-L-Leu-L-Lys-L-Arg-L-Trp]] ({Decanoyl(3R-OH)}-[dDap][Dab][Dab][dIgl]LKRW; lactam 2-C) | 102 | 4 (≈ 3.3 µM) | 4 (≈ 3.3 µM) | 8 (≈ 6.59 µM) | 2 (≈ 1.65 µM) | 16 (≈ 13.2 µM) | 2 (≈ 1.65 µM) | 16 (≈ 13.2 µM) | 2 (≈ 1.65 µM) | 2 (≈ 1.65 µM) | 8 (≈ 6.59 µM) | 2 (≈ 1.65 µM) | 4 (≈ 3.3 µM) | –
CCCCCCC[C@@H](O)CC(=O)N[C@H](CCN)C(=O)N[C@H]1CCNC(=O)[C@H](Cc2ccc3ccccc3c2)NC(=O)[C@H](CCN)NC(=O)[C@H](CCN)NC(=O)[C@H](CC(C)C)NC(=O)[C@@H](Cc2ccccc2)NC(=O)[C@H](CCN)NC1=O [compound 8908, 3(R)OH-nC9CO-D-Dab-cyc[L-Dab-L-Dab-D-Phe-L-Leu-L-Dab-L-Dab-L-Ala(2Naphthyl)]] ({Decanoyl(3R-OH)}-[dDab][Dab][Dab][dF]L[Dab][Dab][2Nal]; lactam 2-C) | 39 | 4 (≈ 3.54 µM) | 4 (≈ 3.54 µM) | 4 (≈ 3.54 µM) | 4 (≈ 3.54 µM) | 4 (≈ 3.54 µM) | 2 (≈ 1.77 µM) | 4 (≈ 3.54 µM) | 4 (≈ 3.54 µM) | 4 (≈ 3.54 µM) | 2 (≈ 1.77 µM) | 2 (≈ 1.77 µM) | 4 (≈ 3.54 µM) | –
CCCCCCCC(O)CC(=O)N[C@H](CCN)C(=O)N[C@H]1CCNC(=O)[C@H](CC(C)C)NC(=O)[C@H](CCN)NC(=O)[C@H](CCN)NC(=O)[C@H](CC(C)C)NC(=O)[C@@H](Cc2ccccc2)NC(=O)[C@H](CCN)NC1=O (stereo partly drawn) [compound 5013, 3OH-nC9CO-D-Dab-cyc[L-Dab-L-Dab-D-Phe-L-Leu-L-Dab-L-Dab-L-Leu]] ({Decanoyl(3ξ-OH)}-[dDab][Dab][Dab][dF]L[Dab][Dab]L; lactam 2-C) | > 300 | 2 (≈ 1.92 µM) | 16 (≈ 15.3 µM) | 16 (≈ 15.3 µM) | 16 (≈ 15.3 µM) | 4 (≈ 3.83 µM) | 2 (≈ 1.92 µM) | 8 (≈ 7.66 µM) | 8 (≈ 7.66 µM) | 16 (≈ 15.3 µM) | 4 (≈ 3.83 µM) | 8 (≈ 7.66 µM) | – | MIC P. aeruginosa GN_043, PmxR [7]: 2 µg/mL (≈ 1.92 µM)
CCCCCCC[C@@H](O)CC(=O)N[C@H](CCN)C(=O)N[C@H]1CCNC(=O)[C@H](CC(C)C)NC(=O)[C@H](CCN)NC(=O)[C@H](CCN)NC(=O)[C@H](CC(C)C)NC(=O)[C@@H](Cc2ccccc2)NC(=O)[C@H](CCCCN)NC1=O [compound 995, 3(R)OH-nC9CO-D-Dab-cyc[L-Dab-L-Lys-D-Phe-L-Leu-L-Dab-L-Dab-L-Leu]] ({Decanoyl(3R-OH)}-[dDab][Dab]K[dF]L[Dab][Dab]L; lactam 2-C) | > 300 | – | – | – | – | – | – | – | – | – | – | – | – | MIC, P. aeruginosa ATCC 27853 (P. aeruginosa ATCC 27853): 4 µg/mL (≈ 3.73 µM); MIC, K. pneumoniae Cl 138-16347-20362, PmxR [1]: 8 µg/mL (≈ 7.46 µM); MIC, A. baumannii ATCC 19606 (A. baumannii ATCC 19606): >32 µg/mL; MIC, K. pneumoniae ATCC BAA-2146, NDM-1 pos [2]: 8 µg/mL (≈ 7.46 µM); MIC, K. pneumoniae Cl Koprana 10065 0661:1, PmxR [3]: 4 µg/mL (≈ 3.73 µM); MIC, P. aeruginosa PA9704, PmxR [4]: 8 µg/mL (≈ 7.46 µM); MIC, A. baumannii Cl Ptyela 10073 4512:2, PmxR (A. baumannii GN_093 PmxR): 32 µg/mL (≈ 29.8 µM); MIC, K. pneumoniae ATCC 700603, MDR [5]: 8 µg/mL (≈ 7.46 µM); MIC, S. Aureus ATCC 25923, MSSA [6]: 32 µg/mL (≈ 29.8 µM); MIC, K. pneumoniae ATCC 13883 (K. pneumoniae ATCC 13883): 8 µg/mL (≈ 7.46 µM); MIC, E. coli ATCC 25922 (E. coli ATCC 25922): 8 µg/mL (≈ 7.46 µM); MIC, P. aeruginosa FADDI-PA070, PmxR ([7]; Table 5, polymyxin-resistant): 8 µg/mL (≈ 7.46 µM)
